From paper PMC10166855, “Tau activation of microglial cGAS–IFN reduces MEF2C-mediated cognitive resilience” (Nature neuroscience, 2023)
pIC50: −log10 of the molar value.

Molecular target: human cGAS (cyclic GMP–AMP synthase) (Homo sapiens, UniProt Q8N884)
Assay: cell-free cGAS activity assay, ATP depletion by Kinase-Glo luminescence
Format: biochemical
Text: cell-free cGAS activity assay, ATP depletion by Kinase-Glo luminescence on human cGAS (cyclic GMP–AMP synthase) | Dose-dependent inhibition of cGAS activity (as measured in a) in response to HT-DNA.

human cGAS (cyclic GMP–AMP synthase), sequence (Q8N884 whole entry): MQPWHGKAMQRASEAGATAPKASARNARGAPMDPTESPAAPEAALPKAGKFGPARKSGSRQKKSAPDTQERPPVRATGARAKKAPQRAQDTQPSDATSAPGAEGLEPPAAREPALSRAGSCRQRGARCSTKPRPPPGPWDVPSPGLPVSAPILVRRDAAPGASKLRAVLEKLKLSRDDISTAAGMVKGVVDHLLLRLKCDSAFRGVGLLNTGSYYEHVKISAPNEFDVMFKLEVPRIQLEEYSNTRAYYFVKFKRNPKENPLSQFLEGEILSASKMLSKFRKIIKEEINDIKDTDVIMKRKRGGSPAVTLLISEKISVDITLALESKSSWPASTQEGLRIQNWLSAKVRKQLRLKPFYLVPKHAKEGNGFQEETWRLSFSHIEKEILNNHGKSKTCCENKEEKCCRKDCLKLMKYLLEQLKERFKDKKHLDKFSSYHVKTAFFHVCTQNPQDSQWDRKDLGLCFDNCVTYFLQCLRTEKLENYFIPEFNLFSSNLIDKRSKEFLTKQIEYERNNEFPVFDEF

## TDI-8246
  pIC50: 7.09
